Data published in PubChem BioAssay AID1963873 (Molecular Pharmacology Branch, DTP, NCI, 2024).
pIC50: −log10 of the molar value.

Tested on: 276233-004-R-J1-PDC KRAS spheroids with HUVEC/MSC, viability
Experiment: Anticancer human tumor 276233-004-R-J1-PDC patient-derived colon adenocarcinoma cell line growth inhibition [KRAS2]
Details: for pIC50: curve of first compound; for viability, T/C: stronger effect = lower value
Description: Multicellular complex tumor spheroid response to RAS pathway inhibitors in combination with a targeted agents in patient-derived cell lines with oncogenic KRAS variants from multiple cancer types
A high-throughput screen of multi-cell type tumor spheroids was designed to identify active combinations of targeted small molecules and KRAS pathway inhibitors. Complex spheroids include a stromal component modeled by human endothelial cells (HUVEC) and fibroblasts modeled by human mesenchymal stem cells (MSCs). The concentration ranges selected for each drug and investigational agent were based upon clinically achievable concentrations if the clinical Cmax of the agent was known.
Compounds. The drugs and investigational agents: BI-3406 (NSC825286), BAY-293 (NSC824723), batoprotafib (TNO155; NSC825523), sotorasib (AMG 510; NSC818433), MRTX1257 (NSC819558), elimusertib (BAY 1895344; NSC800525), molibresib (GSK525762; NSC774829), temuterkib (LY3214996; NSC803410), venetoclax (NSC766270), alisertib (NSC759677), olaparib (NSC753686), talazoparib (NSC767125), erdafitinib (NSC781556), ipatasertib (NSC767898), cabozantinib (NSC761068), nintedanib (NSC756659), abemaciclib (NSC768073), docetaxel (NSC628503), trametinib (NSC758246), and sapanisertib (NSC764658) were obtained from the National Cancer Institute (NCI) Developmental Therapeutics Program Chemical Repository. The FDA-approved anticancer drug set is available from the Developmental Therapeutics Program. […] The stock solutions were prepared in dimethyl sulfoxide (DMSO, Sigma-Aldrich, St. Louis, MO, cat. D2650) at 800-fold the tested concentration and stored at -70 degrees C prior to their use. All drugs and investigational agents were tested over a range starting from a high concentration at or near the clinical Cmax and decreasing in half-log increments. If the clinical Cmax for an agent had not been determined, the highest concentration tested was 10 microM.
Cell Culture. All cells were maintained in an incubator at 37 degrees C and 5% CO2 with 95% humidity. The PDC lines were cultured according to standard operating procedures established by the NCI PDMR (https://pdmr.cancer.gov/sops/default.htm). Briefly, all PDCs were thawed and cultured in Matrigel-coated flasks prepared with a working solution of 1X Ham's F-12 nutrient mix, without supplementation (Invitrogen, Waltham, MA, cat. 11765054), 100 U/mL penicillin-streptomycin (Invitrogen, cat. 15140122), and 2.5% Matrigel (Corning Inc., Corning, NY, cat. 354248) for the first three passages. All PDCs were cultured in complete DMEM/F-12 media containing advanced DMEM/F-12 (Invitrogen, cat. 12634028), 4.9% defined fetal bovine serum, heat inactivated (HyClone Laboratories Inc., Logan, UT, cat. SH30070.03HI), 389 ng/mL hydrocortisone (Sigma-Aldrich, cat. H4001), 9.7 ng/mL human EGF recombinant protein (Invitrogen, cat. PHG0313), 23.4 microg/mL adenine (Sigma-Aldrich, cat. A2786), 97.3 U/mL penicillin-streptomycin (Invitrogen, cat. 15140122), 1.9 mM L-glutamine (Invitrogen, cat. 25030081), and 9.7 microM Y-27632 dihydrochloride (Tocris Bioscience, Bristol, United Kingdom, cat. 1254). The PDCs were cultured in complete DMEM/F12 media without 9.7 microM Y-27632 dihydrochloride for at least two passages prior to the screen. The established cell line HOP-62 was cultured in RPMI 1640 medium, HEPES (Invitrogen, cat. 22400105) with 10% defined fetal bovine serum (HyClone Laboratories Inc., cat. SH30070.03) and 2 mM L-glutamine (Invitrogen, cat. 25030081). The pooled donor HUVEC were cultured in endothelial cell growth medium 2 (PromoCell, Heidelberg, Germany, cat. C-22011) and the hMSC were cultured in mesenchymal stem cell growth medium 2 (PromoCell, cat. C-28009). For all experiments, HUVEC and hMSC were used at passages </=5, while the malignant cell lines were used at passages </=15. […]

[1] = second compound 0.1 µM, first compound 0.01 µM
[2] = second compound 0.1 µM, first compound 0.0316 µM
[3] = second compound 0.1 µM, first compound 0.1 µM
[4] = second compound 0.1 µM, first compound 0.316 µM
[5] = second compound 0.1 µM, first compound 1 µM
[6] = second compound 0.1 µM, first compound 3.16 µM
[7] = second compound 0.316 µM, first compound 0.01 µM
[8] = second compound 0.316 µM, first compound 0.0316 µM
[9] = second compound 0.316 µM, first compound 0.1 µM
[10] = second compound 0.316 µM, first compound 0.316 µM
[11] = second compound 0.316 µM, first compound 1 µM
[12] = second compound 0.316 µM, first compound 3.16 µM
[13] = second compound 1 µM, first compound 0.01 µM
[14] = second compound 1 µM, first compound 0.0316 µM
[15] = second compound 1 µM, first compound 0.1 µM
[16] = second compound 1 µM, first compound 0.316 µM
[17] = second compound 1 µM, first compound 1 µM
[18] = second compound 1 µM, first compound 3.16 µM
[19] = second compound 3.16 µM, first compound 0.01 µM
[20] = second compound 3.16 µM, first compound 0.0316 µM
[21] = second compound 3.16 µM, first compound 0.1 µM
[22] = second compound 3.16 µM, first compound 0.316 µM
[23] = second compound 3.16 µM, first compound 1 µM
[24] = second compound 3.16 µM, first compound 3.16 µM
[25] = second compound 10 µM, first compound 0.01 µM
[26] = second compound 10 µM, first compound 0.0316 µM
[27] = second compound 10 µM, first compound 0.1 µM
[28] = second compound 10 µM, first compound 0.316 µM
[29] = second compound 10 µM, first compound 1 µM
[30] = second compound 10 µM, first compound 3.16 µM
[31] = second compound 0.1 µM, first compound 10 µM
[32] = second compound 0.316 µM, first compound 10 µM
[33] = second compound 1 µM, first compound 10 µM
[34] = second compound 3.16 µM, first compound 10 µM
[35] = second compound 10 µM, first compound 10 µM
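Note: cells exposed to agents for seven days before viability read.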
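Throughout, for viability, T/C: 100% = DMSO vehicle control wells and lower values mean fewer viable cells.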

For `CC(=O)OC12COC1CC(O)C1(C)C(=O)C(O)C3=C(C)C(OC(=O)C(O)C(NC(=O)OC(C)(C)C)c4ccccc4)CC(O)(C(OC(=O)c4ccccc4)C21)C3(C)C` (stereo not given) + CC1OCC2(CCN(c3cnc(Sc4ccnc(N)c4Cl)c(N)n3)CC2)C1N, the pIC50 (second compound 0.1 µM) was under 5.50, the pIC50 (second compound 0.316 µM) was under 5.50 and the pIC50 (second compound 1 µM) was under 5.50. It also gave a pIC50 (second compound 3.16 µM) of over 8.00, a pIC50 (second compound 10 µM) of over 8.00 and a viability, T/C [1] of 61.6%. It also gave a viability, T/C [2] of 69.1%, a viability, T/C [3] of 60% and a viability, T/C [4] of 73.8%. It also gave a viability, T/C [5] of 66.5%, a viability, T/C [6] of 76.2% and a viability, T/C [7] of 70.4%. It also gave a viability, T/C [8] of 72.9%, a viability, T/C [9] of 65.5% and a viability, T/C [10] of 55.9%. For the same compound, the viability, T/C [11] was 66.9%, the viability, T/C [12] was 65.4% and the viability, T/C [13] was 91.1%. The viability, T/C [14] was 75.5%, the viability, T/C [15] was 84.9% and the viability, T/C [16] was 84.5%. For the same compound, the viability, T/C [17] was 84.3%, the viability, T/C [18] was 93.8% and the viability, T/C [19] was 47.4%. For the same compound, the viability, T/C [20] was 39.1%, the viability, T/C [21] was 50.6% and the viability, T/C [22] was 40.5%. It also gave a viability, T/C [23] of 44.1%, a viability, T/C [24] of 40.9% and a viability, T/C [25] of 41.6%. It also gave a viability, T/C [26] of 44.7%, a viability, T/C [27] of 42% and a viability, T/C [28] of 34.7%. For the same compound, the viability, T/C [29] was 42.6% and the viability, T/C [30] was 35%.
In the case of `O=C(c1cc(Cc2n[nH]c(=O)c3ccccc23)ccc1F)N1CCN(C(=O)C2CC2)CC1` + COc1cc2nc(C)nc(NC(C)c3cc(N)cc(C(F)(F)F)c3)c2cc1OC1CCOC1, the pIC50 (second compound 0.1 µM) was under 5.00, the pIC50 (second compound 0.316 µM) was under 5.00 and the pIC50 (second compound 1 µM) was under 5.00. For the same compound, the pIC50 (second compound 3.16 µM) was under 5.00, the pIC50 (second compound 10 µM) was 6.96 and the viability, T/C [2] was 89.7%. The viability, T/C [3] was 102%, the viability, T/C [4] was 92.5% and the viability, T/C [5] was 96%. It also gave a viability, T/C [6] of 103%, a viability, T/C [31] of 86.5% and a viability, T/C [8] of 91.1%. The viability, T/C [9] was 100%, the viability, T/C [10] was 98% and the viability, T/C [11] was 88.9%. The viability, T/C [12] was 87.3%, the viability, T/C [32] was 75.8% and the viability, T/C [14] was 102%. The viability, T/C [15] was 111%, the viability, T/C [16] was 96.8% and the viability, T/C [17] was 89.2%. The viability, T/C [18] was 96.8%, the viability, T/C [33] was 86.3% and the viability, T/C [20] was 71.4%. It also gave a viability, T/C [21] of 77.8%, a viability, T/C [22] of 85.8% and a viability, T/C [23] of 66%. For the same compound, the viability, T/C [24] was 68.3%, the viability, T/C [34] was 58% and the viability, T/C [26] was 98.9%. It also gave a viability, T/C [27] of 45.8%, a viability, T/C [28] of 40.9% and a viability, T/C [29] of 35.5%. It also gave a viability, T/C [30] of 26% and a viability, T/C [35] of 21.6%.
With `CCN1CCN(Cc2ccc(Nc3ncc(F)c(-c4cc(F)c5nc(C)n(C(C)C)c5c4)n3)nc2)CC1` + CNCc1ccccc1-c1csc(C(C)Nc2nc(C)nc3cc(OC)c(OC)cc23)c1 the pIC50 (second compound 0.1 µM) was under 6.00, the pIC50 (second compound 0.316 µM) was under 6.00 and the pIC50 (second compound 1 µM) was 6.27. For the same compound, the pIC50 (second compound 3.16 µM) was over 8.50, the pIC50 (second compound 10 µM) was over 8.50 and the viability, T/C (second compound 0.1 µM, first compound 0.00316 µM) was 129%. The viability, T/C [1] was 106%, the viability, T/C [2] was 87.1% and the viability, T/C [3] was 92.1%. For the same compound, the viability, T/C [4] was 126%, the viability, T/C [5] was 115% and the viability, T/C (second compound 0.316 µM, first compound 0.00316 µM) was 90.2%. For the same compound, the viability, T/C [7] was 111%, the viability, T/C [8] was 95.3% and the viability, T/C [9] was 107%. The viability, T/C [10] was 104%, the viability, T/C [11] was 116% and the viability, T/C (second compound 1 µM, first compound 0.00316 µM) was 92.2%. For the same compound, the viability, T/C [13] was 96.9%, the viability, T/C [14] was 76.3% and the viability, T/C [15] was 76.2%. It also gave a viability, T/C [16] of 80.7%, a viability, T/C [17] of 16% and a viability, T/C (second compound 3.16 µM, first compound 0.00316 µM) of 0.71%. For the same compound, the viability, T/C [19] was 0.53%, the viability, T/C [20] was 0.51% and the viability, T/C [21] was 0.41%. The viability, T/C [22] was 1.45%, the viability, T/C [23] was 0.72% and the viability, T/C (second compound 10 µM, first compound 0.00316 µM) was 0.81%. The viability, T/C [25] was 1.33%, the viability, T/C [26] was 0.33% and the viability, T/C [27] was 0.21%. The viability, T/C [28] was 0.22% and the viability, T/C [29] was 0.3%.
`CC1OCC2(CCN(c3cnc(Sc4ccnc(N)c4Cl)c(N)n3)CC2)C1N` (stereo not given) + C=CC(=O)N1CCN(c2nc(=O)n(-c3c(C)ccnc3C(C)C)c3nc(-c4c(O)cccc4F)c(F)cc23)C(C)C1 was tested, and the pIC50 (second compound 0.1 µM) was under 5.00, the pIC50 (second compound 0.316 µM) was under 5.00 and the pIC50 (second compound 1 µM) was under 5.00. For the same compound, the pIC50 (second compound 3.16 µM) was under 5.00, the pIC50 (second compound 10 µM) was under 5.00 and the viability, T/C [2] was 93.7%. The viability, T/C [3] was 85.8%, the viability, T/C [4] was 82.3% and the viability, T/C [5] was 83.7%. The viability, T/C [6] was 71.6%, the viability, T/C [31] was 69.9% and the viability, T/C [8] was 88.7%. For the same compound, the viability, T/C [9] was 103%, the viability, T/C [10] was 81.9% and the viability, T/C [11] was 85.9%. For the same compound, the viability, T/C [12] was 67.2%, the viability, T/C [32] was 68% and the viability, T/C [14] was 94.7%. For the same compound, the viability, T/C [15] was 97.7%, the viability, T/C [16] was 76.2% and the viability, T/C [17] was 87.4%. It also gave a viability, T/C [18] of 74.2%, a viability, T/C [33] of 55.8% and a viability, T/C [20] of 98.6%. The viability, T/C [21] was 96.4%, the viability, T/C [22] was 88.3% and the viability, T/C [23] was 81.8%. It also gave a viability, T/C [24] of 63.1%, a viability, T/C [34] of 58% and a viability, T/C [26] of 78.4%. For the same compound, the viability, T/C [27] was 82.4%, the viability, T/C [28] was 63.9% and the viability, T/C [29] was 58.3%. The viability, T/C [30] was 68.4% and the viability, T/C [35] was 71.8%.
